Molecular target: SMARCA2 (Homo sapiens, UniProt P51531)
Experiment: MSD SMARCA2 degradation in NCI-H1299 cell line (24 h)
Format: cell-based
Set-up: HC: NCI-H1299 cells treated with DMSO; host or cells: NCI-H1299
Settings: for Dmax: NCI-H1299, NCI-H1299 cells; for DC50: NCI-H1299 cells, read-out: SMARCA2 MSD H1299 degradation 24 h: External Abs-DC50
Method in brief: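 SMARCA2 measured by MSD electrochemiluminescence (primary 0.3 ug/ml, secondary 1 ug/ml) on lysates from NCI-H1299 cells exposed to compounds for 24 h across nine 3-fold dilutions. Signal scaled from A2780 cells (no SMARCA2) to DMSO-treated H1299 controls, and maximal degradation after 24 h reported in letter categories.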

Sequence of SMARCA2 (P51531 whole entry): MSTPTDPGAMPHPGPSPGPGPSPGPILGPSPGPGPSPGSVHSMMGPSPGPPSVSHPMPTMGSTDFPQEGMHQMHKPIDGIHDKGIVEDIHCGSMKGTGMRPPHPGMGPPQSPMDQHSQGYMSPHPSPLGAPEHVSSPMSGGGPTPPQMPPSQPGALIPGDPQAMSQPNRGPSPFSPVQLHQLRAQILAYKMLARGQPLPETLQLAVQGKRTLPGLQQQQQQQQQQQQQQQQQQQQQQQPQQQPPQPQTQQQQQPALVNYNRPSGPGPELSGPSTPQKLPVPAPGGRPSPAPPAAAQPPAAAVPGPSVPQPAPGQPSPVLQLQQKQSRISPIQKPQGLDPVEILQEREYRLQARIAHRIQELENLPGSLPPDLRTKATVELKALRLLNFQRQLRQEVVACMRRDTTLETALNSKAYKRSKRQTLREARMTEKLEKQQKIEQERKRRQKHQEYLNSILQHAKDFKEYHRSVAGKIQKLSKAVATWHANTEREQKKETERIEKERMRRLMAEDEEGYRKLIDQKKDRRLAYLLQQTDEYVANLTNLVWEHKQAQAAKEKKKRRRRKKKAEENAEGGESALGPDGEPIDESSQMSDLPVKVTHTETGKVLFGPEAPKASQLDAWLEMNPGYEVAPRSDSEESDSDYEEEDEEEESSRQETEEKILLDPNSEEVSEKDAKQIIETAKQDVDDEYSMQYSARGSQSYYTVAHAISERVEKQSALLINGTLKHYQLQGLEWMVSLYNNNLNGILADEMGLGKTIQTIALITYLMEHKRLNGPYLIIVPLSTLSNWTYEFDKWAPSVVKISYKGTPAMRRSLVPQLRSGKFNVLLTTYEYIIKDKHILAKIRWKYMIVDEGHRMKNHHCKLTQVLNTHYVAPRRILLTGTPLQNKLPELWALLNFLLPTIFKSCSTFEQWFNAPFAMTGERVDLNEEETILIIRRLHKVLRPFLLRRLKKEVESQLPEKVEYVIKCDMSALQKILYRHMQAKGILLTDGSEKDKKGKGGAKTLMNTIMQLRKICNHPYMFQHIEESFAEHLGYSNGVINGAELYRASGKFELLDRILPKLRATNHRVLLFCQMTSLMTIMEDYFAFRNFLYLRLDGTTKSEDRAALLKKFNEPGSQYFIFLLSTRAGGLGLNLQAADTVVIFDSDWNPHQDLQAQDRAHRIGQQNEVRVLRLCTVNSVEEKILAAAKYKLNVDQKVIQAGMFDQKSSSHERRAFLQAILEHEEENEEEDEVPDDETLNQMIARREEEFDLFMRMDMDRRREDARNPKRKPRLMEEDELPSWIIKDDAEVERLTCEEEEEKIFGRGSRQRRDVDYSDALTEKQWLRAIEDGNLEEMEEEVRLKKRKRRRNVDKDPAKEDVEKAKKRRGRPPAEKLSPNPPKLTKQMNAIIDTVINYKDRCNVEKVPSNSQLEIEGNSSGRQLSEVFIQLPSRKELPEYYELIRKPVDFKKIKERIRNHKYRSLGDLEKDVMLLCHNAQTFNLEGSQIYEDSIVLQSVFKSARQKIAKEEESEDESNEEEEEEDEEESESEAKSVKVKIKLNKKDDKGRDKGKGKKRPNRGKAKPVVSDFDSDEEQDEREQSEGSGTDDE

Dmax [%] | DC50 [nM] | SMILES
50 to 70 | 100 to 500 | Cn1c(=O)n(C2CCC(=O)NC2=O)c2cccc(CN3CCCC(n4cc(-c5cc(-c6ccccc6O)nnc5N)cn4)C3)c21 (stereo not shown) [I-168]
– | > 1000 | O=C(CCCCCCCCOc1ccnc(N2C[C@H]3C[C@@H]2CN3/C=C/C(=O)c2ccccc2O)c1)NCCOCCOCCOCCOCCNc1cccc2c1C(=O)N(C1CCC(=O)NC1=O)C2=O (stereo partly shown) [I-18]
– | > 1000 | Cc1ncsc1-c1ccc(CNC(=O)[C@@H]2C[C@@H](O)CN2C(=O)[C@@H](NC(=O)COCCOCCOCCOCCOCCNC(=O)CCCCCCCCOc2ccc(N3C[C@H]4C[C@@H]3CN4/C=C/C(=O)c3ccccc3O)nc2)C(C)(C)C)cc1 [I-230]
50 to 70 | < 100 | Cn1c(=O)n(C2CCC(=O)NC2=O)c2ccc(CCCOCCCCN3CCN(Cc4ccc(-c5cc(-c6ccccc6O)nnc5N)cc4)CC3)cc21 (stereo not shown) [I-138]
– | > 1000 | Cn1c(=O)n(C2CCC(=O)NC2=O)c2ccc(CCCOCCOCCOCCNC(=O)CCCCCCCCOc3ccc(N4C[C@H]5C[C@@H]4CN5/C=C/C(=O)c4ccccc4O)nc3)cc21 (stereo partly shown) [I-4]
50 to 70 | > 1000 | Cn1c(=O)n(C2CCC(=O)NC2=O)c2ccc(CN3CC(OCCCN4CCN(Cc5ccc(-c6cc(-c7ccccc7O)nnc6N)cc5)CC4)C3)cc21 (stereo not shown) [I-156]
> 90 | 100 to 500 | Nc1nnc(-c2ccccc2O)cc1N1CCN(c2ccc(CNCCOCCOCCCc3ccc4c(c3)oc(=O)n4C3CCC(=O)NC3=O)cc2)CC1 (stereo not shown) [I-126]
– | > 1000 | O=C(CCCCCCCCOc1ccc(N2C[C@H]3C[C@@H]2CN3/C=C/C(=O)c2ccccc2O)nc1)NCCOCCOCCOCCOCCOCCNc1cccc2c1C(=O)N(C1CCC(=O)NC1=O)C2=O (stereo partly shown) [I-3]
> 90 | 100 to 500 | CN(CCCN1CCC(c2cccc3c2n(C)c(=O)n3C2CCC(=O)NC2=O)CC1)Cc1ccc(N2CCN(c3cc(-c4ccccc4O)nnc3N)CC2)cc1 (stereo not shown) [I-110]
– | > 1000 | Cn1c(=O)n(C2CCC(=O)NC2=O)c2ccc(CCCOCCOCCOCCOCCOCCNC(=O)CCCCCCCCOc3ccc(N4C[C@H]5C[C@@H]4CN5/C=C/C(=O)c4ccccc4O)nc3)cc21 (stereo partly shown) [I-6]
50 to 70 | 100 to 500 | Cn1c(=O)n(C2CCC(=O)NC2=O)c2ccc(CCCN3CCC[C@@H](Cn4cc(-c5cc(-c6ccccc6O)nnc5N)cn4)C3)cc21 (stereo partly shown) [I-191]
– | > 1000 | CN1C(=O)CCC(N2C(=O)c3cccc(OCCCCc4cn(Cc5cccc(N6C[C@H]7C[C@@H]6CN7/C=C/C(=O)c6ccccc6O)n5)nn4)c3C2=O)C1=O (stereo partly shown) [I-41]
> 90 | < 100 | CN(Cc1ccc(N2CCN(c3cc(-c4ccccc4O)nnc3N)CC2)cc1)CC1CCN(Cc2cccc3c2n(C)c(=O)n3C2CCC(=O)NC2=O)CC1 (stereo not shown) [I-132, 3-(4-((4-(((4-(4-(3-amino-6-(2-hydroxyphenyl)pyridazin-4-yl)piperazin-1-yl)benzyl)(methyl)amino)methyl)piperidin-1-yl)methyl)-3-methyl-2-oxo-2,3-dihydro-1H-benzo[d]imidazol-1-yl)piperidine-2,6-dione]
– | > 1000 | Cc1ncsc1-c1ccc(CNC(=O)[C@@H]2C[C@@H](O)CN2C(=O)[C@@H](NC(=O)COCCOCCOCCOCCOCCNC(=O)CCCCCCCCOc2ccnc(N3C[C@H]4C[C@@H]3CN4/C=C/C(=O)c3ccccc3O)c2)C(C)(C)C)cc1 [I-222]
50 to 70 | 100 to 500 | Cn1c(=O)n(C2CCC(=O)NC2=O)c2ccc(CCCN3CCC(n4cc(-c5cc(-c6ccccc6O)nnc5N)cn4)CC3)cc21 (stereo not shown) [I-182]
> 90 | < 100 | Cn1c(=O)n(C2CCC(=O)NC2=O)c2cccc(CCCN3CCCC(n4cc(-c5cc(-c6ccccc6O)nnc5N)cn4)C3)c21 (stereo not shown) [I-169, 3-(4-(3-(3-(4-(3-amino-6-(2-hydroxyphenyl)pyridazin-4-yl)-1H-pyrazol-1-yl)piperidin-1-yl)propyl)-3-methyl-2-oxo-2,3-dihydro-1H-benzo[d]imidazol-1-yl)piperidine-2,6-dione]
> 90 | 501 to 1000 | Cc1ncsc1-c1ccc(CNC(=O)[C@@H]2C[C@@H](O)CN2C(=O)[C@@H](NC(=O)CCCCCCCCCN2CCC(Cn3cc(-c4cc(-c5ccccc5O)nnc4N)cn3)CC2)C(C)(C)C)cc1 [I-214]
> 90 | < 100 | Cn1c(=O)n(C2CCC(=O)NC2=O)c2cccc(CCCCCCCCN3CCC(Cn4cc(-c5cc(-c6ccccc6O)nnc5N)cn4)CC3)c21 (stereo not shown) [I-150]

Dmax [%] | DC50 [nM] | SMILES
< 50 | > 1000 | Cn1c(=O)n(C2CCC(=O)NC2=O)c2cccc(C#CCCCCCCc3cn(Cc4cccc(N5C[C@H]6C[C@@H]5CN6/C=C/C(=O)c5ccccc5O)n4)nn3)c21 (stereo partly shown) [I-68]
– | > 1000 | Cc1ncsc1-c1ccc(CNC(=O)[C@@H]2C[C@@H](O)CN2C(=O)[C@@H](NC(=O)COCCOCCOCCOCCOCCOCCNC(=O)c2ccc(C(C)n3cc(-c4cc(-c5ccccc5O)nnc4N)cn3)cc2)C(C)(C)C)cc1 (stereo partly shown) [I-225]
< 50 | > 1000 | Cn1c(=O)n(C2CCC(=O)NC2=O)c2cccc(CNCCCCc3cn(Cc4cccc(N5C[C@H]6C[C@@H]5CN6/C=C/C(=O)c5ccccc5O)n4)nn3)c21 (stereo partly shown) [I-80]
< 50 | > 1000 | Cn1c(=O)n(C2CCC(=O)NC2=O)c2cccc(CNCCCCCc3cn(Cc4cccc(N5C[C@H]6C[C@@H]5CN6/C=C/C(=O)c5ccccc5O)n4)nn3)c21 (stereo partly shown) [I-81]
50 to 70 | 100 to 500 | Cn1c(=O)n(C2CCC(=O)NC2=O)c2cccc(CCCOCCOCCN3CCN(Cc4ccc(-c5cc(-c6ccccc6O)nnc5N)cc4)CC3)c21 (stereo not shown) [I-107]
< 50 | > 1000 | Cn1c(=O)n(C2CCC(=O)NC2=O)c2cccc(CCCCCc3cn(Cc4cccc(N5C[C@H]6C[C@@H]5CN6/C=C/C(=O)c5ccccc5O)n4)nn3)c21 (stereo partly shown) [I-50]
< 50 | > 1000 | Cn1c(=O)n(C2CCC(=O)NC2=O)c2ccc(C#CCCCCCCc3cn(Cc4cccc(N5C[C@H]6C[C@@H]5CN6/C=C/C(=O)c5ccccc5O)n4)nn3)cc21 (stereo partly shown) [I-63]
– | > 1000 | O=C(CCCCCCCCOc1ccnc(N2C[C@H]3C[C@@H]2CN3/C=C/C(=O)c2ccccc2O)c1)NCCOCCOCCOCCNc1cccc2c1C(=O)N(C1CCC(=O)NC1=O)C2=O (stereo partly shown) [I-17]
70 to 90 | < 100 | Cn1c(=O)n(C2CCC(=O)NC2=O)c2ccc(CCCCCN3CCC(n4cc(-c5cc(-c6ccccc6O)nnc5N)cn4)CC3)cc21 (stereo not shown) [I-183]
50 to 70 | > 1000 | Nc1nnc(-c2ccccc2O)cc1N1CCN(c2ccc(CNCCCOCCCc3ccc4c(c3)oc(=O)n4C3CCC(=O)NC3=O)cc2)CC1 (stereo not shown) [I-127]
70 to 90 | 100 to 500 | CN(CCOCCOCCCc1ccc2c(c1)oc(=O)n2C1CCC(=O)NC1=O)Cc1ccc(N2CCN(c3cc(-c4ccccc4O)nnc3N)CC2)cc1 (stereo not shown) [I-123]
70 to 90 | 100 to 500 | CN(Cc1ccc(N2CCN(c3cc(-c4ccccc4O)nnc3N)CC2)cc1)C[C@@H]1CN(CCCc2cccc3c2n(C)c(=O)n3C2CCC(=O)NC2=O)CCO1 (stereo partly shown) [I-117]
– | > 1000 | CN[C@@H](C)C(=O)N[C@H](C(=O)N1Cc2cc(OCCOCCOCCNC(=O)CCCCCCCCOc3ccnc(N4C[C@H]5C[C@@H]4CN5/C=C/C(=O)c4ccccc4O)c3)ccc2C[C@H]1C(=O)N[C@@H]1CCCc2ccccc21)C(C)(C)C [I-205]
70 to 90 | 100 to 500 | Cn1c(=O)n(C2CCC(=O)NC2=O)c2cccc(CCCOC3CCN(Cc4ccc(N5CCN(c6cc(-c7ccccc7O)nnc6N)CC5)cc4)CC3)c21 (stereo not shown) [I-115]
70 to 90 | > 1000 | Nc1nnc(-c2ccccc2O)cc1N1C[C@H]2C[C@@H]1CN2c1cccc(Cn2cc(CCCCOc3cccc4c3C(=O)N(C3CCC(=O)NC3=O)C4=O)nn2)n1 (stereo partly shown) [I-43]
50 to 70 | > 1000 | Cn1c(=O)n(C2CCC(=O)NC2=O)c2cccc(CCCOc3ccc(CN4CCN(c5cc(-c6ccccc6O)nnc5N)CC4)cc3)c21 (stereo not shown) [I-90]
50 to 70 | 100 to 500 | Cn1c(=O)n(C2CCC(=O)NC2=O)c2ccc(CCCOCCOCCOCCN3CCN(Cc4ccc(-c5cc(-c6ccccc6O)nnc5N)cc4)CC3)cc21 (stereo not shown) [I-134]
> 90 | < 100 | Cn1c(=O)n(C2CCC(=O)NC2=O)c2cccc(CCCCN3CCC[C@@H](Cn4cc(-c5cc(-c6ccccc6O)nnc5N)cn4)C3)c21 (stereo partly shown) [I-189]

SMILES | Dmax [%] | DC50 [nM]
O=C1CCC(N2C(=O)c3cccc(OCCCCc4cn(CCCc5cccc(N6C[C@H]7C[C@@H]6CN7/C=C/C(=O)c6ccccc6O)n5)nn4)c3C2=O)C(=O)N1 (stereo partly drawn) [I-71, 2-(2,6-dioxopiperidin-3-yl)-4-(4-(1-(3-(6-((1R,4R)-5-((E)-3-(2-hydroxyphenyl)-3-oxoprop-1-en-1-yl)-2,5-diazabicyclo[2.2.1]heptan-2-yl)pyridin-2-yl)propyl)-1H-1,2,3-triazol-4-yl)butoxy)isoindoline-1,3-dione] | < 50 | > 1000
Cc1ncsc1-c1ccc(CNC(=O)[C@@H]2C[C@@H](O)CN2C(=O)[C@@H](NC(=O)CN2CCC(c3cnc(N4C5CCC4CN(c4cc(-c6ccccc6O)nnc4N)C5)nc3)CC2)C(C)(C)C)cc1 [I-211, (2S,4R)-1-[(2S)-2-[[2-[4-[2-[3-[3-amino-6-(2-hydroxyphenyl)pyridazin-4-yl]-3,8-diazabicyclo[3.2.1]octan-8-yl]pyrimidin-5-yl]-1-piperidyl]acetyl]amino]-3,3-dimethyl-butanoyl]-4-hydroxy-N-[[4-(4-methylthiazol-5-yl)phenyl]methyl]pyrrolidine-2-carboxamide] | > 90 | 100 to 500
Cn1c(=O)n(C2CCC(=O)NC2=O)c2ccc(CCN3CCN(Cc4cnc(N5C6CCC5CN(c5cc(-c7ccccc7O)nnc5N)C6)nc4)CC3)cc21 (stereo not shown) [I-165] | > 90 | < 100
CN1C(=O)CCC(n2c(=O)n(C)c3cc(CCCCCCCc4cnc(N5C6CCC5CN(c5cc(-c7ccccc7O)nnc5N)C6)nc4)ccc32)C1=O (stereo not shown) [I-187] | < 50 | > 1000

Source: US12624044B2, “SMARCA degraders and uses thereof” (Kymera Therapeutics, Inc., priority 2019, dated 2026)
